Data reported in the NIST ThermoML archive (doi:10.1016/j.tca.2013.08.031).

Assay: molar heat capacity at constant volume
Details: Fluid (supercritical or subcritical phases), Vacuum adiabatic calorimetry

CCC(C)O (stereo not given) [butan-2-ol]
Details	molar heat capacity at constant volume [J/K/mol]
307.37 K, Mass density=794.06 kg/m3	167.81
307.62 K, Mass density=794.06 kg/m3	154.62
307.87 K, Mass density=794.06 kg/m3	157.58
308.12 K, Mass density=794.06 kg/m3	160.7
308.37 K, Mass density=794.06 kg/m3	163.88
308.62 K, Mass density=794.06 kg/m3	165.44
308.87 K, Mass density=794.06 kg/m3	167.74
309.12 K, Mass density=794.06 kg/m3	167.81
309.37 K, Mass density=794.06 kg/m3	168.4
309.62 K, Mass density=794.06 kg/m3	167.22
311.11 K, Mass density=794.06 kg/m3	182.78
321.67 K, Mass density=794.06 kg/m3	204.87
323.61 K, Mass density=794.06 kg/m3	208.36
323.85 K, Mass density=794.06 kg/m3	208.87
324.09 K, Mass density=794.06 kg/m3	208.06
324.33 K, Mass density=794.06 kg/m3	208.8
324.57 K, Mass density=794.06 kg/m3	208.8
324.81 K, Mass density=794.06 kg/m3	207.99
325.06 K, Mass density=794.06 kg/m3	209.76
325.3 K, Mass density=794.06 kg/m3	210.43
325.54 K, Mass density=794.06 kg/m3	211.25
325.78 K, Mass density=769.05 kg/m3	223.77
325.78 K, Mass density=794.06 kg/m3	210.73
326.02 K, Mass density=769.05 kg/m3	224.88
326.02 K, Mass density=794.06 kg/m3	211.32
326.26 K, Mass density=769.05 kg/m3	226.22
326.26 K, Mass density=794.06 kg/m3	213.03
326.5 K, Mass density=769.05 kg/m3	226.29
326.74 K, Mass density=769.05 kg/m3	227.11
326.98 K, Mass density=769.05 kg/m3	226.59
327.22 K, Mass density=769.05 kg/m3	226.59
327.22 K, Mass density=794.06 kg/m3	213.54
327.46 K, Mass density=794.06 kg/m3	212.51
327.7 K, Mass density=794.06 kg/m3	212.8
327.94 K, Mass density=794.06 kg/m3	212.73
328.18 K, Mass density=794.06 kg/m3	212.43
333.2 K, Mass density=769.05 kg/m3	231.33
333.44 K, Mass density=769.05 kg/m3	232.45
333.67 K, Mass density=769.05 kg/m3	231.78
333.91 K, Mass density=769.05 kg/m3	232.59
334.15 K, Mass density=769.05 kg/m3	232.82
334.39 K, Mass density=769.05 kg/m3	233.04
334.62 K, Mass density=769.05 kg/m3	232.82
334.86 K, Mass density=769.05 kg/m3	233.63
335.1 K, Mass density=769.05 kg/m3	234.15
335.33 K, Mass density=769.05 kg/m3	233.41
335.57 K, Mass density=769.05 kg/m3	225.63
335.81 K, Mass density=769.05 kg/m3	219.55
336.04 K, Mass density=769.05 kg/m3	213.77
336.28 K, Mass density=769.05 kg/m3	209.39
336.52 K, Mass density=769.05 kg/m3	207.32
336.75 K, Mass density=769.05 kg/m3	207.02
337.46 K, Mass density=769.05 kg/m3	204.72
337.93 K, Mass density=769.05 kg/m3	204.8
338.64 K, Mass density=769.05 kg/m3	204.35
339.34 K, Mass density=769.05 kg/m3	203.76
349.82 K, Mass density=735.98 kg/m3	241.34
350.05 K, Mass density=735.98 kg/m3	242.01
350.28 K, Mass density=735.98 kg/m3	243.56
350.51 K, Mass density=735.98 kg/m3	243.19
350.74 K, Mass density=735.98 kg/m3	243.49
352.35 K, Mass density=769.05 kg/m3	218.36
352.58 K, Mass density=769.05 kg/m3	219.99
353.27 K, Mass density=735.98 kg/m3	242.23
353.49 K, Mass density=735.98 kg/m3	245.19
353.72 K, Mass density=735.98 kg/m3	244.68
353.95 K, Mass density=735.98 kg/m3	243.34
354.18 K, Mass density=735.98 kg/m3	245.12
354.41 K, Mass density=735.98 kg/m3	243.86
354.64 K, Mass density=735.98 kg/m3	245.56
364.16 K, Mass density=735.98 kg/m3	251.2
364.39 K, Mass density=735.98 kg/m3	251.35
364.61 K, Mass density=735.98 kg/m3	252.01
364.84 K, Mass density=735.98 kg/m3	252.16
365.06 K, Mass density=735.98 kg/m3	251.79
365.29 K, Mass density=735.98 kg/m3	251.79
365.51 K, Mass density=735.98 kg/m3	252.01
366.41 K, Mass density=735.98 kg/m3	253.2
366.63 K, Mass density=735.98 kg/m3	248.46
366.86 K, Mass density=735.98 kg/m3	245.27
367.08 K, Mass density=735.98 kg/m3	226.44
367.31 K, Mass density=735.98 kg/m3	219.84
367.53 K, Mass density=735.98 kg/m3	215.18
367.75 K, Mass density=735.98 kg/m3	213.69
367.98 K, Mass density=735.98 kg/m3	212.88
368.2 K, Mass density=735.98 kg/m3	213.25
369.54 K, Mass density=735.98 kg/m3	213.69
369.76 K, Mass density=735.98 kg/m3	214.43
369.99 K, Mass density=735.98 kg/m3	214.66
371.32 K, Mass density=683.53 kg/m3	261.13
371.54 K, Mass density=683.53 kg/m3	261.43
371.77 K, Mass density=683.53 kg/m3	261.72
371.99 K, Mass density=683.53 kg/m3	263.06
372.21 K, Mass density=683.53 kg/m3	263.95
372.43 K, Mass density=683.53 kg/m3	260.76
372.65 K, Mass density=683.53 kg/m3	259.87
373.1 K, Mass density=735.98 kg/m3	216.29
373.32 K, Mass density=735.98 kg/m3	217.25
373.54 K, Mass density=735.98 kg/m3	217.99
373.76 K, Mass density=735.98 kg/m3	219.7
373.98 K, Mass density=735.98 kg/m3	219.03
374.21 K, Mass density=735.98 kg/m3	216.66
374.43 K, Mass density=735.98 kg/m3	217.4
374.65 K, Mass density=735.98 kg/m3	217.47
374.87 K, Mass density=735.98 kg/m3	218.51
